This is an account of results in patent US20260070945A1, “MACROCYCLIC IMMUNOMODULATORS” (Bristol-Myers Squibb Company, priority 2022, published 2026).

Molecules are shown by their SMILES. Where a SMILES comes first, the peptide text is derived from it. Bridges are numbered along the chain shown (N, C = ends). [ ]: non-standard residue; d: D form. The star is where a group is joined. Bip = N[C@@H](Cc1ccc(-c2ccccc2)cc1)C(=O)O; 4Pal = N[C@@H](Cc1ccncc1)C(=O)O; Cha = N[C@@H](CC1CCCCC1)C(=O)O; Carboxymethyl = O=C(O)C*; NMeA = CN[C@@H](C)C(=O)O; Orn = NCCC[C@H](N)C(=O)O; Aun = NCCCCCCCCCCC(=O)O; Dab = NCC[C@H](N)C(=O)O; Dap = NC[C@H](N)C(=O)O; AEEA = NCCOCCOCC(=O)O

For the assay, the target named is T1, PD-1/PD-L1 interaction (PE-labeled human PD-L1-Ig binding to Jurkat cell line over-expressing human PD-1) (Homo sapiens, UniProt Q15116).
T1 construct: expressed in transfected cells; host or cells: Jurkat
T1 sequence (Q15116 25-288): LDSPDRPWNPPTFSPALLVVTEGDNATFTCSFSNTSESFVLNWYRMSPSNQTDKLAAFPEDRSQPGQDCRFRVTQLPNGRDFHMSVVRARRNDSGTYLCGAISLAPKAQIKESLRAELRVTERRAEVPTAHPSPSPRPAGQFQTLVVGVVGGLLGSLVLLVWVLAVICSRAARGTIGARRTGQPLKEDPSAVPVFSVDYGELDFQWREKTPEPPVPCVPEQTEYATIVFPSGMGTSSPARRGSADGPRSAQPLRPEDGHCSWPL
The experiment in a line: Jurkat-PD-1 Cell Binding High-Content Screening Assay (CBA). As to conditions: Jurkat-hPD-1 cells, PE-labeled PD-L1-Ig 20 nM final; read-out: Jurkat HPD1 PDL1 IC50. The method in brief:
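Cells 8×10^3/well, DMEM + 10% FCS; cpd 2 h, 37 °C; PE–PD-L1-Ig 20 nM final, 1 h; PFA fix + Hoechst 33342, 3× dPBS wash; high-content imager.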
With `CC(C)C[C@@H]1NC(=O)[C@H](Cc2c[nH]c3ccccc23)NC(=O)[C@H](CC(=O)O)NC(=O)[C@H](Cc2ccncc2)NC(=O)[C@H](Cc2ccc(OCC(=O)O)cc2)NC(=O)CSC[C@@H](C(=O)N[C@@H](CN)C(=O)NCCOCCOCC(=O)NCCCCCCCCCCC(=O)O)NC(=O)[C@H](CO)NC(=O)[C@H](C(C)C)NC(=O)[C@H](CC2CCCCC2)NC(=O)[C@H](CCN)NC(=O)[C@@H](CC(C)C)NC(=O)[C@H](C)N(C)C(=O)[C@H](C(C)C)NC(=O)[C@H](Cc2ccc(-c3ccccc3)cc2)NC1=O` [Example 1088] ({CH2CO}-Y(Carboxymethyl)[4Pal]DWL[Bip]V[NMeA][dL][Dab][Cha]VSC[Dap][AEEA][Aun]-OH; thioether N-14), the IC50 is 7.1 nM.

On to `CC(C)C[C@@H]1NC(=O)[C@H](Cc2c[nH]c3ccccc23)NC(=O)[C@H](CC(=O)O)NC(=O)[C@H](Cc2ccncc2)NC(=O)[C@H](Cc2ccc(OCC(=O)O)cc2)NC(=O)CSC[C@@H](C(=O)N[C@@H](CCN)C(=O)NCCOCCOCC(=O)NCCCCCCCCCCC(=O)O)NC(=O)[C@H](CO)NC(=O)[C@H](C(C)C)NC(=O)[C@H](CC2CCCCC2)NC(=O)[C@H](CCN)NC(=O)[C@@H](CC(C)C)NC(=O)[C@H](C)N(C)C(=O)[C@H](C(C)C)NC(=O)[C@H](Cc2ccc(-c3ccccc3)cc2)NC1=O` [Example 1089] ({CH2CO}-Y(Carboxymethyl)[4Pal]DWL[Bip]V[NMeA][dL][Dab][Cha]VSC[Dab][AEEA][Aun]-OH; thioether N-14), for which the IC50 worked out at 5.2 nM.

Consider `CC(C)C[C@@H]1NC(=O)[C@H](Cc2c[nH]c3ccccc23)NC(=O)[C@H](CC(=O)O)NC(=O)[C@H](Cc2ccncc2)NC(=O)[C@H](Cc2ccc(OCC(=O)O)cc2)NC(=O)CSC[C@@H](C(=O)N[C@@H](CCCN)C(=O)NCCOCCOCC(=O)NCCCCCCCCCCC(=O)O)NC(=O)[C@H](CO)NC(=O)[C@H](C(C)C)NC(=O)[C@H](CC2CCCCC2)NC(=O)[C@H](CCN)NC(=O)[C@@H](CC(C)C)NC(=O)[C@H](C)N(C)C(=O)[C@H](C(C)C)NC(=O)[C@H](Cc2ccc(-c3ccccc3)cc2)NC1=O` [Example 1090] ({CH2CO}-Y(Carboxymethyl)[4Pal]DWL[Bip]V[NMeA][dL][Dab][Cha]VSC[Orn][AEEA][Aun]-OH; thioether N-14), for which the IC50 stood at 8.3 nM.

Take `CC(C)C[C@@H]1NC(=O)[C@H](Cc2c[nH]c3ccccc23)NC(=O)[C@H](CC(=O)O)NC(=O)[C@H](Cc2ccncc2)NC(=O)[C@H](Cc2ccc(OCC(=O)O)cc2)NC(=O)CSC[C@@H](C(=O)N[C@@H](CCCCN)C(=O)NCCOCCOCC(=O)NCCCCCCCCCCC(=O)O)NC(=O)[C@H](CO)NC(=O)[C@H](C(C)C)NC(=O)[C@H](CC2CCCCC2)NC(=O)[C@H](CCN)NC(=O)[C@@H](CC(C)C)NC(=O)[C@H](C)N(C)C(=O)[C@H](C(C)C)NC(=O)[C@H](Cc2ccc(-c3ccccc3)cc2)NC1=O` [Example 1091] ({CH2CO}-Y(Carboxymethyl)[4Pal]DWL[Bip]V[NMeA][dL][Dab][Cha]VSCK[AEEA][Aun]-OH; thioether N-14): the IC50 stood at 6.8 nM.

`CC(C)C[C@@H]1NC(=O)[C@H](Cc2c[nH]c3ccccc23)NC(=O)[C@H](CC(=O)O)NC(=O)[C@H](Cc2ccncc2)NC(=O)[C@H](Cc2ccc(OCC(=O)O)cc2)NC(=O)CSC[C@@H](C(=O)N[C@@H](CCCNC(=N)N)C(=O)NCCOCCOCC(=O)NCCCCCCCCCCC(=O)O)NC(=O)[C@H](CO)NC(=O)[C@H](C(C)C)NC(=O)[C@H](CC2CCCCC2)NC(=O)[C@H](CCN)NC(=O)[C@@H](CC(C)C)NC(=O)[C@H](C)N(C)C(=O)[C@H](C(C)C)NC(=O)[C@H](Cc2ccc(-c3ccccc3)cc2)NC1=O` [Example 1092] ({CH2CO}-Y(Carboxymethyl)[4Pal]DWL[Bip]V[NMeA][dL][Dab][Cha]VSCR[AEEA][Aun]-OH; thioether N-14): the IC50 turned out to be 11.3 nM.
